According to patent publication US20240376099A1, “COMPOUNDS AND COMPOSITIONS AS INHIBITORS OF ENDOSOMAL TOLL-LIKE RECEPTORS” (Novartis AG, priority 2016, published 2024):

The compounds below were run against T1, TLR7 (Homo sapiens, UniProt Q9NYK1) (assay: huPBMC TLR7 Antagonist IFNα Assay). Conditions: human PBMCs stimulated with ssRNA40 10 μg/mL (DOTAP), 14-16 hrs; IFNα2b AlphaLISA read-out.
T1 construct: Fresh blood was collected from normal human donors; endogenous in cells; host or cells: human PBMCs from fresh donor blood
T1 sequence (Q9NYK1 27-1049): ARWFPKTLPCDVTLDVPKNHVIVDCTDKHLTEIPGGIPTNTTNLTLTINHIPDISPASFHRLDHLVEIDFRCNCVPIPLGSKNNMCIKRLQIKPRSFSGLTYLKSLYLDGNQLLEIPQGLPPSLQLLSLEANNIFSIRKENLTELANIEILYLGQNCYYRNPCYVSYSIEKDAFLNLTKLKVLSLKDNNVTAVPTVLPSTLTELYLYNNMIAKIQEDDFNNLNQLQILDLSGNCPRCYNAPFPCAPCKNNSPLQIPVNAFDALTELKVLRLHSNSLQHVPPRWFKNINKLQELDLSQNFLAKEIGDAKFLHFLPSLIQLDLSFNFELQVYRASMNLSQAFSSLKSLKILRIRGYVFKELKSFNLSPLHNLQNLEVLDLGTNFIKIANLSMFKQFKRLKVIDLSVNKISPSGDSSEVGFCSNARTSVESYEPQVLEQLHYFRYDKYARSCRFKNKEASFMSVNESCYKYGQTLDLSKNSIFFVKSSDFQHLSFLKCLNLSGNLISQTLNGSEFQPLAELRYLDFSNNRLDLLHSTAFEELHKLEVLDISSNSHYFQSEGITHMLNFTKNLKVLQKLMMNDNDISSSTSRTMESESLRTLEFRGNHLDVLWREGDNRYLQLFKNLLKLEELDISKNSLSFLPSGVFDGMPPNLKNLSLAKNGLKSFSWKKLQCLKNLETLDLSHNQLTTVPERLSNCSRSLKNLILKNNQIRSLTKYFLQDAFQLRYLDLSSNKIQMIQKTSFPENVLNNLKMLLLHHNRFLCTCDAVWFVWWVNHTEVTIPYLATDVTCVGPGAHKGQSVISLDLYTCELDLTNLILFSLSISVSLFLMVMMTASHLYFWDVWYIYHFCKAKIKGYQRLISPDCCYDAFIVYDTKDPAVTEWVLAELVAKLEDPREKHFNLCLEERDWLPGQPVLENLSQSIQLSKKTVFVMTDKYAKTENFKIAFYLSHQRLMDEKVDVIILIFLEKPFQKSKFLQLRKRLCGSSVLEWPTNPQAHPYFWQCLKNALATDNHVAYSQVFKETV
Assay type: cell-based
Outline: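 Human PBMCs from fresh donor blood (150,000 cells/well) stimulated 14–16 h at 37 °C with DOTAP-complexed ssRNA40 (final 1 μg/ml for TLR8, 10 μg/mL for TLR7) or ODN2216 (final 0.3 μM, TLR9), 0.25% DMSO, ten-point 1/3 compound dilutions. Supernatant IL-6 read by HTRF (TLR8); IFNα by IFNα2b AlphaLISA (TLR7/TLR9).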

| Structure (SMILES) | IC50 |
| --- | --- |
| Cc1cc(N2CCc3c(c(C)nn3CC34CCC(NCC(=O)N5CCCC5)(CC3)CC4)C2)c2cnn(C)c2n1 [compound 106, 2-((4-((5-(1,6-dimethyl-1H-pyrazolo[3,4-b]pyridin-4-yl)-3-methyl-4,5,6,7-tetrahydro-1H-pyrazolo[4,3-c]pyridin-1-yl)methyl)bicyclo[2.2.2]octan-1-yl)amino)-1-(pyrrolidin-1-yl)ethanone] | 63 nM |
| Cc1cc(N2CCc3c(c(C)nn3CC34CCC(N5CCO[C@H](C)C5)(CC3)CC4)C2)c2cnn(C)c2n1 [compound 107, (R)-4-(4-((5-(1,6-dimethyl-1H-pyrazolo[3,4-b]pyridin-4-yl)-3-methyl-4,5,6,7-tetrahydro-1H-pyrazolo[4,3-c]pyridin-1-yl)methyl)bicyclo[2.2.2]octan-1-yl)-2-methylmorpholine] | 11 nM |
| Cc1cc(N2CCc3c(c(C)nn3CC34CCC(N5CCO[C@@H](C)C5)(CC3)CC4)C2)c2cnn(C)c2n1 [compound 109, (S)-4-(4-((5-(1,6-dimethyl-1H-pyrazolo[3,4-b]pyridin-4-yl)-3-methyl-4,5,6,7-tetrahydro-1H-pyrazolo[4,3-c]pyridin-1-yl)methyl)bicyclo[2.2.2]octan-1-yl)-2-methylmorpholine] | 12 nM |
| Cc1cc(N2CCc3c(c(C)nn3CC34CCC(N5C[C@@H](C)O[C@@H](C)C5)(CC3)CC4)C2)c2cnn(C)c2n1 [compound 110, (2S,6R)-4-(4-((5-(1,6-dimethyl-1H-pyrazolo[3,4-b]pyridin-4-yl)-3-methyl-4,5,6,7-tetrahydro-1H-pyrazolo[4,3-c]pyridin-1-yl)methyl)bicyclo[2.2.2]octan-1-yl)-2,6-dimethylmorpholine] | 7 nM |
| Cc1cc(N2CCc3c(c(C)nn3CC34CCC(N5C[C@H](C)O[C@@H](C)C5)(CC3)CC4)C2)c2cnn(C)c2n1 [compound 111, (2S,6S)-4-(4-((5-(1,6-dimethyl-1H-pyrazolo[3,4-b]pyridin-4-yl)-3-methyl-4,5,6,7-tetrahydro-1H-pyrazolo[4,3-c]pyridin-1-yl)methyl)bicyclo[2.2.2]octan-1-yl)-2,6-dimethylmorpholine] | 28 nM |
| Cc1cc(N2CCc3c(c(C)nn3CC34CCC(NCC5CCC5)(CC3)CO4)C2)c2cnn(C)c2n1 [compound 112, N-(cyclobutylmethyl)-1-((5-(1,6-dimethyl-1H-pyrazolo[3,4-b]pyridin-4-yl)-3-methyl-4,5,6,7-tetrahydro-1H-pyrazolo[4,3-c]pyridin-1-yl)methyl)-2-oxabicyclo[2.2.2]octan-4-amine] | 24 nM |
| Cc1cc(N2CCc3c(c(C)nn3CC34CCC(N5C[C@@H](C)O[C@H](C)C5)(CC3)CC4)C2)c2cnn(C)c2n1 [compound 113, (2R,6R)-4-(4-((5-(1,6-dimethyl-1H-pyrazolo[3,4-b]pyridin-4-yl)-3-methyl-4,5,6,7-tetrahydro-1H-pyrazolo[4,3-c]pyridin-1-yl)methyl)bicyclo[2.2.2]octan-1-yl)-2,6-dimethylmorpholine] | 53 nM |
| Cc1cc(N2CCc3c(c(C)nn3CC34CCC(N5CC6(COC6)C5)(CC3)CC4)C2)c2cnn(C)c2n1 [compound 116, 6-(4-((5-(1,6-dimethyl-1H-pyrazolo[3,4-b]pyridin-4-yl)-3-methyl-4,5,6,7-tetrahydro-1H-pyrazolo[4,3-c]pyridin-1-yl)methyl)bicyclo[2.2.2]octan-1-yl)-2-oxa-6-azaspiro[3.3]heptane] | 9 nM |
| Cc1cc(N2CCc3c(c(C)nn3CC34CCC(NC(=O)C5CNCCO5)(CC3)CC4)C2)c2cnn(C)c2n1 (stereo not drawn) [compound 125, N-(4-((5-(1,6-dimethyl-1H-pyrazolo[3,4-b]pyridin-4-yl)-3-methyl-4,5,6,7-tetrahydro-1H-pyrazolo[4,3-c]pyridin-1-yl)methyl)bicyclo[2.2.2]octan-1-yl)morpholine-2-carboxamide] | 4 nM |
| CCNC12CCC(Cn3nc(C)c4c3CCN(c3ccnc(-c5ccccc5)c3)C4)(CC1)CC2 [compound 127, N-ethyl-4-((3-methyl-5-(2-phenylpyridin-4-yl)-4,5,6,7-tetrahydro-1H-pyrazolo[4,3-c]pyridin-1-yl)methyl)bicyclo[2.2.2]octan-1-amine] | 259 nM |

Second part, the compound after the results:

| IC50 | Structure (SMILES) |
| --- | --- |
| 10 nM | CCNCC(=O)NC12CCC(Cn3nc(C)c4c3CCN(c3cc(C)nc5c3cnn5C)C4)(CC1)CC2 [compound 114, N-(4-((5-(1,6-dimethyl-1H-pyrazolo[3,4-b]pyridin-4-yl)-3-methyl-4,5,6,7-tetrahydro-1H-pyrazolo[4,3-c]pyridin-1-yl)methyl)bicyclo[2.2.2]octan-1-yl)-2-(ethylamino)acetamide] |
| 10 nM | Cc1cc(N2CCc3c(c(C)nn3CC34CCC(NC(=O)CCN)(CC3)CC4)C2)c2cnn(C)c2n1 [compound 115, 3-amino-N-(4-((5-(1,6-dimethyl-1H-pyrazolo[3,4-b]pyridin-4-yl)-3-methyl-4,5,6,7-tetrahydro-1H-pyrazolo[4,3-c]pyridin-1-yl)methyl)bicyclo[2.2.2]octan-1-yl)propanamide] |
| 2 nM | CN[C@H](C)C(=O)NC12CCC(Cn3nc(C)c4c3CCN(c3cc(C)nc5c3cnn5C)C4)(CC1)CC2 [compound 117, (R)-N-(4-((5-(1,6-dimethyl-1H-pyrazolo[3,4-b]pyridin-4-yl)-3-methyl-4,5,6,7-tetrahydro-1H-pyrazolo[4,3-c]pyridin-1-yl)methyl)bicyclo[2.2.2]octan-1-yl)-2-(methylamino)propanamide] |
| 2 nM | CN[C@@H](C)C(=O)NC12CCC(Cn3nc(C)c4c3CCN(c3cc(C)nc5c3cnn5C)C4)(CC1)CC2 [compound 118] |
| 5 nM | CNCC(=O)NC12CCC(Cn3nc(C)c4c3CCN(c3cc(C)nc5c3cnn5C)C4)(CC1)CC2 [compound 121, N-(4-((5-(1,6-dimethyl-1H-pyrazolo[3,4-b]pyridin-4-yl)-3-methyl-4,5,6,7-tetrahydro-1H-pyrazolo[4,3-c]pyridin-1-yl)methyl)bicyclo[2.2.2]octan-1-yl)-2-(methylamino)acetamide] |
| 24 nM | Cc1cc(N2CCc3c(c(C)nn3CC34CCC(NCC(C)(C)O)(CC3)CC4)C2)c2cnn(C)c2n1 [compound 123, 1-((4-((5-(1,6-dimethyl-1H-pyrazolo[3,4-b]pyridin-4-yl)-3-methyl-4,5,6,7-tetrahydro-1H-pyrazolo[4,3-c]pyridin-1-yl)methyl)bicyclo[2.2.2]octan-1-yl)amino)-2-methylpropan-2-ol] |
| 1040 nM | CCNCC(=O)NC12CCC(Cn3nc(C)c4c3CCN(c3cc(C)nc5cn[nH]c35)C4)(CC1)CC2 [compound 124, 2-(ethylamino)-N-(4-((3-methyl-5-(5-methyl-1H-pyrazolo[4,3-b]pyridin-7-yl)-4,5,6,7-tetrahydro-1H-pyrazolo[4,3-c]pyridin-1-yl)methyl)bicyclo[2.2.2]octan-1-yl)acetamide] |
| 20 nM | CCNCCC(=O)NC12CCC(Cn3nc(C)c4c3CCN(c3cc(C)nc5c3cnn5C)C4)(CC1)CC2 [compound 126, N-(4-((5-(1,6-dimethyl-1H-pyrazolo[3,4-b]pyridin-4-yl)-3-methyl-4,5,6,7-tetrahydro-1H-pyrazolo[4,3-c]pyridin-1-yl)methyl)bicyclo[2.2.2]octan-1-yl)-3-(ethylamino)propanamide] |
